# Test: Glucose challenge model
# Assay type: in vivo, male CD1 mice
# Settings: mice, IP glucose challenge; 10 μg IP injection
# Excerpt: The glucose challenge model used to test SEQ ID NO: 70-Exenatide was designed to examine the capacity of a GLP-1-like activity to enhance the rate of recovery from a glucose excursion.
# The male CD1 mice used in the glucose challenge test were 9-16 weeks of age. To minimize stress due to handling, animals were acclimatized to the environment, blood sampling, and dosing procedures for 1 week prior to the start of experiments, as plasma glucose can be responsive to handling stress. Mice were fasted for 18 h prior to study. […] Blood samples were taken at t=0, 15, 30, 45, 60 min; 2, 3, and 4 hr. Blood glucose measurements were made using 5 μL blood sample taken from the tail with a commercial glucometer that was calibrated with glucose standards prior to the start of the study.
substance,measurement,value
Exenatide (1-40)-Gly,time at which correction of the blood glucose excursion began,15 min
same,time by which the correction profile was completed,≤ 120 min

# From US20260116928A1, “COMPOSITIONS AND PARTICLES FOR PAYLOAD DELIVERY” (Thornhill Therapeutics, Inc., priority 2019, published 2026)
